Here are results for 21 compounds from ChEMBL document CHEMBL3751665, “Identification of a novel NAMPT inhibitor by combinatorial click chemistry and chemical refinement” (Medchemcomm, 2015).

Assay [1] deals with SH-SY5Y. Description: Cytotoxicity against human SH-SY5Y cells assessed as cell viability at 1 uM after 48 hrs by MTT assay relative to control. It counts as functional. The note with it: read-out: Activity.
Assay [2] deals with SH-SY5Y. Description: Cytotoxicity against human SH-SY5Y cells assessed as cell viability at 100 nM after 48 hrs by MTT assay relative to control. The following applies: read-out: Activity. Type of assay: functional.
Assay [3] has as its system SH-SY5Y. Description: Cytotoxicity against human SH-SY5Y cells assessed as cell viability at 10 uM after 48 hrs by MTT assay relative to control. Type of assay: functional. The note with it: read-out: Activity.
Assay [4] concerns the target Nicotinamide phosphoribosyltransferase (Homo sapiens, UniProt P43490). Description: Inhibition of NAMPT in human SH-SY5Y cells assessed as NAD depletion incubated for 16 hrs. Type of assay: cell-based.
In assay [5] the test system is SH-SY5Y. Description: Cytotoxicity against human SH-SY5Y cells assessed as reduction in cell viability after 48 hrs by MTT assay. Type of assay: functional, cell-based.
Assay [6] has as its target Nicotinamide phosphoribosyltransferase (Mus musculus, UniProt Q99KQ4). Description: Inhibition of recombinant mouse NAMPT expressed in bacteria assessed as reduction in NADH formation using [14C]NAM as substrate measured for 1 hr by coupled enzymatic assay.

Sequence of Nicotinamide phosphoribosyltransferase (Mus musculus, UniProt Q99KQ4) (Q99KQ4 whole entry): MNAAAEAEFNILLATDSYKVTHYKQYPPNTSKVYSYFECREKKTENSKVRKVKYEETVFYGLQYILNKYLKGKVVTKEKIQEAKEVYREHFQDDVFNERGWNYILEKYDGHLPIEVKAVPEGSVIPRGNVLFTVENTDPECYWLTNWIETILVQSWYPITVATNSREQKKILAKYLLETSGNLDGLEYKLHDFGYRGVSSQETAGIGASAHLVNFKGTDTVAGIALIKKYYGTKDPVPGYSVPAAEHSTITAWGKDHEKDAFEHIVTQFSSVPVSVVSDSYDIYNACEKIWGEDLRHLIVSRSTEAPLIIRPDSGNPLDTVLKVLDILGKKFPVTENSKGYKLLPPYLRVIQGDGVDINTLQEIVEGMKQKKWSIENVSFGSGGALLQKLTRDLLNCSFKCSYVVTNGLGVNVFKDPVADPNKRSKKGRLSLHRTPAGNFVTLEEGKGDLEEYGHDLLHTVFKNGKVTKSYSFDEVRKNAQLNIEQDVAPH
Sequence of Nicotinamide phosphoribosyltransferase (Homo sapiens, UniProt P43490) (P43490 whole entry): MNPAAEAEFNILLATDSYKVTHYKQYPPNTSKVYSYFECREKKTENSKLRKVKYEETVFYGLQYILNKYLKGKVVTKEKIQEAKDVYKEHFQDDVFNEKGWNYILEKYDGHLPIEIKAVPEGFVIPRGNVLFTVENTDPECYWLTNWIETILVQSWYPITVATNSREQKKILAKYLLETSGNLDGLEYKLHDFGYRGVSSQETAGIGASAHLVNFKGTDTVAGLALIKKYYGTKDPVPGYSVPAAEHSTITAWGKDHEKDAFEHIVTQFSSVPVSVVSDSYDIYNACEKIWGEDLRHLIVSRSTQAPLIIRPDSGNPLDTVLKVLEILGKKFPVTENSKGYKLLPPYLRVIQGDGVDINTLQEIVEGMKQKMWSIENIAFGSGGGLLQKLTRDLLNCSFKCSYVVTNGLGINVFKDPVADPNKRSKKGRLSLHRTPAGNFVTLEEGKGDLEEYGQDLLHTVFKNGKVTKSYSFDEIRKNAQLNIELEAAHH

As for `O=C(Cc1cccnc1)NCCCCCc1cn(-c2ccccc2-c2ccccc2)nn1`, the viability at 1 µM in the assay with SH-SY5Y [1] is 99%. In the assay on SH-SY5Y [2], the viability at 0.1 µM turned out to be 106%.

Turning to `O=C(CCCCCCc1cn(-c2ccccc2-c2ccccc2)nn1)NCc1cccnc1`, in the assay on SH-SY5Y [1], the viability at 1 µM came out at 98%. Also, the viability at 10 µM in the assay with SH-SY5Y [3] worked out at 47%.

As to `O=C(CCCCCc1cn(Cc2ccc(-c3ccccc3)cc2)nn1)NCCc1ccncc1`, the viability at 10 µM in the assay on SH-SY5Y [3] is 100%.

Turning to `O=C(CCCCCCCc1cn(-c2ccccc2-c2ccccc2)nn1)Nc1ccncc1`, the viability at 1 µM in the assay with SH-SY5Y [1] amounted to 82%. Besides, the viability at 10 µM in the assay with SH-SY5Y [3] was 32%.

Consider `O=C(CCCCCCCc1cn(-c2ccc(CN3CCOCC3)cc2)nn1)Nc1ccncc1`, for which the viability at 10 µM in the assay with SH-SY5Y [3] was 125%.

For `CNCC(=O)N(CCn1cc(CCCCCCCC(=O)NCCc2cccnc2)nn1)Cc1ccccc1`, the viability at 10 µM with SH-SY5Y [3] was 109%.

`O=C(CCCCCCCCc1cn(-c2cnc3ccccc3c2)nn1)NCc1cccnc1`: the viability at 1 µM with SH-SY5Y [1] came out at 102%. In the assay with SH-SY5Y [3], the viability at 10 µM came to 29%.

Turning to `O=C(CCCCCc1cn(-c2ccccc2-c2ccccc2)nn1)NCc1cccnc1`, in the assay with SH-SY5Y [1], the viability at 1 µM amounted to 13.4%. In addition, the IC50 (as a rule, the concentration that inhibits the measured activity by half) in assay [4] stood at 1.1 nM; in assay [6], 267 nM. In the assay with SH-SY5Y [5], the EC50 (as a rule, the concentration at which the effect is half-maximal) was found to be 456 nM. Also, the viability at 10 µM in the assay on SH-SY5Y [3] amounted to 12.5%.

With `O=C(CCc1cccnc1)NCCCCCc1cn(-c2ccccc2-c2ccccc2)nn1`, in the assay on SH-SY5Y [1], the viability at 1 µM turned out to be 54%. Besides, the viability at 0.1 µM in the assay on SH-SY5Y [2] was found to be 112%.

In the case of `O=C(CCCCCCCCc1cn(-c2ccc(N3CCOCC3)cc2)nn1)Nc1ccncc1`, the viability at 1 µM with SH-SY5Y [1] is 93%. In addition, in the assay with SH-SY5Y [3], the viability at 10 µM was 28%.

On to `O=C(CCCCCCCc1cn(-c2ccccc2Cc2ccccc2)nn1)NCc1cccnc1`, for which the viability at 10 µM in the assay with SH-SY5Y [3] came out at 94%.

With `O=C(CCCCCCCc1cn(-c2ccc(N3CCOCC3)cc2)nn1)Nc1ccncc1`, the viability at 10 µM in the assay with SH-SY5Y [3] was determined as 103%.

With `O=C(CCCCCc1cn(-c2ccccc2-c2ccccc2)nn1)NCCc1cccnc1`, in the assay with SH-SY5Y [1], the viability at 1 µM was determined as 29.2%. Also, the IC50 in assay [4] was 7.6 nM; in assay [6], 170 nM. In addition, the EC50 in the assay with SH-SY5Y [5] was 680 nM. For the same compound, the viability at 10 µM in the assay on SH-SY5Y [3] was found to be 25%.

As to `O=C(/C=C/c1cccnc1)NCCCCC1CCN(C(=O)c2ccccc2)CC1` [DAPORINAD], the EC50 in the assay with SH-SY5Y [5] came out at 3.2 nM. Also, the IC50 in assay [6] is 61 nM.

With `O=C(CCCCCCCCc1cn(-c2cnc3ccccc3c2)nn1)Nc1ccncc1`, in the assay on SH-SY5Y [1], the viability at 1 µM is 104%. Also, in the assay with SH-SY5Y [3], the viability at 10 µM was 53%.

On to `O=C(CCCCCCCc1cn(-c2ccccc2Cc2ccccc2)nn1)NCCc1cccnc1`, for which the viability at 10 µM with SH-SY5Y [3] was 101%.

On to `O=C(CCCCCCCCc1cn(-c2ccc(N3CCOCC3)cc2)nn1)NCc1cccnc1`, for which, in the assay with SH-SY5Y [1], the viability at 1 µM is 100%. The viability at 10 µM with SH-SY5Y [3] was 74%.

Take `O=C(CCCCCCCc1cn(-c2ccccc2-c2ccccc2)nn1)Nc1cccnc1`: the viability at 10 µM in the assay on SH-SY5Y [3] amounted to 111%.

For `O=C(/C=C/c1cccnc1)NCCCCCc1cn(-c2ccccc2-c2ccccc2)nn1`, in the assay with SH-SY5Y [1], the viability at 1 µM is 32%. Moreover, the figures for the IC50 in assay [4] and in assay [6] were 0.0509 nM and 114 nM, respectively. Besides, the EC50 in the assay with SH-SY5Y [5] was determined as 20 nM. The viability at 0.1 µM in the assay on SH-SY5Y [2] was determined as 49%.

Regarding `O=C(CCCCCCCc1cn(-c2ccccc2CO)nn1)NCc1cccnc1`, in the assay on SH-SY5Y [3], the viability at 10 µM amounted to 96%.

Take `O=C(CCCCCCCc1cn(-c2ccccc2Cc2ccccc2)nn1)NCCc1ccncc1`: the viability at 10 µM in the assay on SH-SY5Y [3] came to 99%.
